Non-standard residues stand in square brackets, D forms with d. No end group written: not given here. Ahx = NCCCCCC(=O)O
Columns and labels:
[1] = test system: E2 ubiquitination reaction; conditions: patent application GB 2,320,570; cited from earlier work
[2] = test system: [125I]-lysozyme degradation in the reticulocyte lysate; assay: inhibition of [125I]-lysozyme degradation in reticulocyte lysate by ubiquitination recognition elements; format: biochemical, rabbit; conditions: for lysozyme degradation, result at the 2 hour time point: no treatment 12,475 cpm
Procedure: Proteins were labeled by Lofstrand Laboratories Ltd. (Gaithersburg, Md.) Labeled to […] by oxidation of Na^125I using an iodobead chloramine-T procedure. The ubiquitin-dependent protein degradation assay was preformed by the addition of 70 μL of rabbit reticulocyte lysate and 5 uL of 0.06 μCi/μL ^25I-labeled protein to […] of reaction buffer containing 40 mM Tris pH 7.6, 2 mM DTT, 5 mM MgCl2, 0.5 mM ATP, 35 μg creatine phosphokinase (Sigma) and 10 mM phosphocreatine. The reaction were run at 37 C. in a heating block, and at time points 30 μL of the reaction was transferred to 50 μl of cold 100 mg/mL BSA and protein was precipitated by the addition of 420 μL of 23% TCA followed by 15 min on ice. The precipitated samples were microfuged for 2 min at 5000 rpm and 300 μL of supernatant was then counted for TCA-soluble ^125I on a gamma counter (Hidex).
In order to determine if a given molecule or molecular element is potentially valuable as a ubiquitination recognition element the assay described above is run with [^125I]-lysozyme or other labeled protein substrates in the presence of potential ubiquitination recognition elements.
The results at the 2 hour time point were 12,475 cpm for no treatment, 6,486 cpm for the 2 mM Arg-εAhx-Cys treatment and 3,592 cpm for the 5 mM Phe-εAhx-Cys treatment.

| Compound | inhibition of an E2 ubiquitination reaction [1] | effect on lysozyme degradation in the reticulocyte lysate [2] | lysozyme degradation, result at the 2 hour time point ([2]; 2 mM treatment) | lysozyme degradation, result at the 2 hour time point ([2]; 5 mM treatment) |
| --- | --- | --- | --- | --- |
| O=S(=O)(O)c1cc(Nc2nc(Cl)nc(Nc3ccc(Cl)c(Nc4nc(Cl)nc(Nc5cc(S(=O)(=O)O)cc6cc(S(=O)(=O)O)c(N=Nc7ccc8ccccc8c7S(=O)(=O)O)c(O)c56)n4)c3)n2)c2c(O)c(N=Nc3ccc4ccccc4c3S(=O)(=O)O)c(S(=O)(=O)O)cc2c1 [compound Z, 1-chloro-2,4-bis{4-[2-chloro-6-(5-(2,7-disulfo-4-hydroxy-3-(2-(1-sulfonaphthyl)azo)naphthyl)amino)-1,3,5-triazinyl]amino}benzene] | inhibited an E2 ubiquitination reaction | – | – | – |
| Arg-εAhx-Cys (Arg-[Ahx]-Cys) [ubiquitination recognition element, Type I recognition with caproic acid linker and C-terminal Cys] | – | inhibition of the lysozyme degradation | 6,486 cpm | – |
| Phe-εAhx-Cys (Phe-[Ahx]-Cys) [ubiquitination recognition element, Type II recognition with caproic acid linker and C-terminal Cys] | – | inhibition of the lysozyme degradation | – | 3,592 cpm |
